We go through 7 compounds from patent US4352944A, “Treatment of cashew nut shell liquid” (Minnesota Mining and Manufacturing Company, priority 1980, dated 1982).

A short description of data set [1]: Distillation of Technical CNSL treated with amines (Example 1, Table 1). The settings on record: for % composition of distillate: 2-me-Cardol / % composition of distillate: Cardanol / % composition of distillate: Cardol / % composition of residue: 2-me-Cardol / % composition of residue: Cardanol / % composition of residue: Cardol: short still head. From the text:
(§1) Technical CNSL of Brazilian origin and distilled CNSL obtained from it were used in the present work. Material of this origin tends to be richer in cardol. The average molecular weight was taken to be 306 based upon cardanol (average dienoid, m.w. 300) and cardol (m.w. 314, average trienoid). Three amines were used, namely diethylenetriamine (V), N-(2-aminoethyl)ethanolamine (VI) and diethanolamine (VII), which are structurally related. [drawing 3] Different molar proportions of the triamine (DETA) (V) were used with distilled CNSL (1.0 mole), from 0.25, 0.50 to 1.0. In the case of Technical CNSL (having more cardol initially present) the molar proportions of DETA were 1.0, 1.6 and 2.0 per mole of the CNSL. The mixtures in all cases were kept for 7 days and then distilled under high vacuum. After recovery of the amine, one fraction of cardanol which was considerably purified was collected. […] The distillation residue was still quite mobile and from this, cardol and the polymer from the original CNSL could be recovered.
In a typical experiment, technical CNSL (9.18 g) and DETA (3.09 g: 1 mole) were interacted at ambient temperature and the mixture after 7 days distilled through a short Vigreux type Claisen flask.
(§2) In the distillations reported in the following Tables 1 and 2 a Vigreux column was not used but merely a short still head section. All products were examined by gas-liquid chromatography (hereinafter GLC) on a gas chromatographic apparatus equipped with an integrator upon a 3% SE30 type column after trimethylsilylation with bis-(trimethylsilyl)acetamide in a pyridine solution. In the calculation of the results, response fractions have not been used. The peak areas as printed out by integration have been normalized (expressed in % form).
(9.18 g of Technical CNSL was used)

Data set [2] is described as follows: Distillation of distilled CNSL treated with amines (Example 1, Table 2).
Source text: as §1, §2
(9.18 g distilled CNSL was used with different

The nature of data set [3]: Runs with different amines on distilled CNSL, GC of distillate (Example 2). The settings on record: 0.2 mole amine, seven days, 0.5 mm Hg, fraction 180-185° C. On the procedure:
A series of runs was performed using different amines. 0.2 mole of the amines indicated in the table was mixed with 300 g of distilled CNSL (cardanol:cardol 90:10, 1.0 mole). When the mixture was stirred a mild exothermic reaction was noted. The mixture was allowed to stand for seven days at room temperature then distilled at 0.5 mm Hg. The major fraction (boiling at 180° to 185° C.) was analyzed by gas chromatography for cardanol and cardol.

Data set [4] in a line: Effect of length of time of DETA treatment (Example 3).
Source text: as §1, §2
Technical CNSL was treated with DETA (1 mole proportion) and the mixture distilled as in Example 1 after it had been allowed to stand for 24 hours instead of 7 days. […] Probably an overnight procedure might well suffice.

The nature of data set [5]: Effectiveness of bases in cardol removal / cardol-cardanol separation (Example 7). The settings on record: for effect on separation / suitability, in words: general statement.
For data set [6] the following is noted: determined in aqueous solution; literature values; cited from earlier work.

Each structure is given as a SMILES string. Entries after “also recorded” stand apart in the source; their conditions may differ.

As for `NCCNCCN` [DETA, diethylenetriamine], the cardol after distillation in data set [1] (1 molar proportion, no Vigreux column, from ca 20%) is roughly 6%. Moreover, in data set [1] (1 mole DETA, 7 days, short Vigreux type flask), the “impurity in distilled cardanol by TLC” value is on record as “no cardanol”. The “cardol after distillation, in words” value in data set [1] (Vigreux type column) is “almost zero”. Also, the “% composition of distillate: 2-me-Cardol” value is 1.9% in data set [1] (amine 1 M, 7 days); 2.1% in data set [1] (amine 1.6 M, 7 days); 1.1% in data set [1] (amine 2 M, 7 days); 0.7% in data set [2] (amine 0.25 M); 0.4% in data set [2] (amine 0.50 M); 2.0% in data set [2] (amine 1.0 M). Also, the “% composition of distillate: Cardanol” value in data set [1] (amine 1 M, 7 days) was found to be 93.0%; in data set [1] (amine 1.6 M, 7 days) it was 91.1%; in data set [1] (amine 2 M, 7 days), 93.1%; in data set [2] (amine 0.25 M), 95.4%; in data set [2] (amine 0.50 M), 97.7%; in data set [2] (amine 1.0 M), 93.8%. Moreover, the “% composition of distillate: Cardanol” value was found to be 98.9% in data set [3], 91.7% in data set [4] (24 h with DETA (1 M)) and 92.0% in data set [4] (7 days with DETA (1 M)). Besides, the “% composition of distillate: Cardol” value was 5.1% in data set [1] (amine 1 M, 7 days); 6.8% in data set [1] (amine 1.6 M, 7 days); 5.8% in data set [1] (amine 2 M, 7 days); 3.9% in data set [2] (amine 0.25 M); 2.0% in data set [2] (amine 0.50 M); 4.2% in data set [2] (amine 1.0 M). In addition, the “% composition of distillate: Cardol” value in data set [3] was determined as 0.0%; in data set [4] (24 h with DETA (1 M)) it was 6.6%; in data set [4] (7 days with DETA (1 M)), 6.2%. For the same compound, the “% composition of residue: 2-me-Cardol” value in data set [1] (amine 1 M, 7 days) is listed as 3.2%; in data set [1] (amine 1.6 M, 7 days) it was 4.24%; in data set [1] (amine 2 M, 7 days), 7.6%. For the same compound, the “% composition of residue: Cardanol” value in data set [1] (amine 1 M, 7 days) is reported as 85.6%; in data set [1] (amine 1.6 M, 7 days) it was 75.1%; in data set [1] (amine 2 M, 7 days), 63.2%. Also, the “% composition of residue: Cardol” value in data set [1] (amine 1 M, 7 days) came to 11.2%; in data set [1] (amine 1.6 M, 7 days) it was 21.7%; in data set [1] (amine 2 M, 7 days), 29.1%. Further, the “effectiveness of 24 hour treatment” value in data set [4] (24 h, 1 mole proportion) was “quite effective”. In addition, the “% Composition of distillate: 2-Methyl-Cardol” value in data set [4] (24 h with DETA (1 M)) is listed as 1.6%; in data set [4] (7 days with DETA (1 M)), 1.8%. Further, the “Effectiveness (in cardol removal)” value in data set [5] is on record as “excellent”. Further, in data set [6], the Kb is 4.5 × 10^-5.

Regarding `OCCNCCO` [Diethanolamine, diethanolamine], in data set [1] (amine 1.5 M, 7 days), the “% composition of distillate: 2-me-Cardol” value came out at 2.3%, the “% composition of distillate: Cardanol” value came to 88.0%, the “% composition of distillate: Cardol” value is 9.7% and the “% composition of residue: 2-me-Cardol” value was 10.4%. For the same compound, in data set [1] (amine 1.5 M, 7 days), the “% composition of residue: Cardanol” value was 55.7% and the “% composition of residue: Cardol” value was 33.9%. In addition, in data set [5], the “Effectiveness (in cardol removal)” value was “not effective; also recorded: ineffective” and the “effect on separation / suitability, in words” value is “not effective”.

Take `NCCNCCO` [N-(2-Aminoethyl)ethanolamine, N-(2-aminoethyl)ethanolamine]: in data set [1] (amine 1.5 M, 7 days), the “% composition of distillate: 2-me-Cardol” value amounted to 2.3%, the “% composition of distillate: Cardanol” value came to 92.4%, the “% composition of distillate: Cardol” value is listed as 5.3% and the “% composition of residue: 2-me-Cardol” value is 4.7%. Further, in data set [1] (amine 1.5 M, 7 days), the “% composition of residue: Cardanol” value turned out to be 75.5% and the “% composition of residue: Cardol” value amounted to 19.8%. Further, in data set [5], the “Effectiveness (in cardol removal)” value is “excellent”. In data set [6], the Kb is recorded as 6.6 × 10^-5.

On to `C1CCNCC1` [Piperidine, piperidine], for which, in data set [3], the “% composition of distillate: Cardanol” value is reported as 96.1% and the “% composition of distillate: Cardol” value amounted to 2.2%. For the same compound, in data set [5], the “Effectiveness (in cardol removal)” value is “excellent”. Also, in data set [6], the Kb is recorded as 1.7 × 10^-3.

As to `N` [ammonium hydroxide], the “effect on separation / suitability, in words” value in data set [5] is reported as “not suitable”.

For `CCCCN` [n-butylamine], in data set [3], the “% composition of distillate: Cardanol” value is 94.5% and the “% composition of distillate: Cardol” value was 5.5%. Further, in data set [5], the “Effectiveness (in cardol removal)” value was “not effective; also recorded: ineffective” and the “effect on separation / suitability, in words” value was “not suitable”. The Kb in data set [6] is given as 3.9 × 10^-4.

On to `CCN(CC)CC` [triethylamine], for which the “Effectiveness (in cardol removal)” value in data set [5] is listed as “excellent”. Further, in data set [6], the Kb was 4.5 × 10^-4.
